# Like-named read-outs stand apart in the source and are kept apart here.
# Tests used:
# [1] = tested on: platelet aggregation; assay: Platelet aggregation assay, ADP and/or collagen (Example 45); assay type: in vivo, cynomolgus monkeys; conditions: escalating dose regimen
# Method in brief: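 Monkeys received subcutaneous antisense oligonucleotides or PBS, either escalating from 5 to 25 mg/kg or chronically at 5 then 10 mg/kg, over 12 weeks. Plasma was collected weekly and challenged with 1 mmol/L ADP and/or 3 μg collagen for 10 minutes. Aggregation was read by impedance change and initial slope after shape change, averaged over duplicate runs.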
# [2] = tested on: Factor 11 activity; assay: Factor 11 protein activity, F11 assay based on clotting time (Example 45); assay type: in vivo, cynomolgus monkeys; conditions: escalating dose regimen
# Method in brief: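 Monkeys dosed subcutaneously with antisense oligonucleotides in escalating regimens from 5 to 25 mg/kg up to week 12 (one chronic group capped at 10 mg/kg); PBS controls. Weekly plasma Factor 11 measured by clotting time in Factor 11-deficient plasma with aPTT reagent, 37 °C, CaCl2-triggered; expressed as percent inhibition versus PBS.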
# [3] = mouse, in vivo
# Procedure: A control group of five mice was injected subcutaneously with PBS for 2 weeks. All experimental groups (i.e. ASO treated mice at 2, 4, 6 weeks) were compared to the control group (i.e. PBS, 2 weeks).
# Blood obtained from all mice groups were sent to Antech Diagnostics for hematocrit (HCT), mean corpuscular volume (MCV), mean corpuscular hemoglobin (MCH), and mean corpuscular hemoglobin concentration (MCHC) measurements and analyses, as well as measurements of the various blood cells, such as WBC (neutrophils, lymphocytes, and monocytes), RBC, and platelets, and total hemoglobin content.
# [4] = Tolerability in CD1 mice: kidney function, BUN (Example 37); conditions: plasma, 50 mg/kg s.c. twice per week for 6 weeks
# [5] = Tolerability in Sprague-Dawley rats: hematology assays (Example 35); conditions: 50 mg/kg s.c. twice per week for 6 weeks; for HCT / MCH / MCHC / MCV: title says % control
# Procedure: A control group of four Sprague Dawley rats was injected subcutaneously with PBS twice per week for 6 weeks. Body weight measurements were taken before and throughout the treatment period. Urine samples were taken before the start of treatment. Three days after the last dose, urine samples were taken and the rats were sacrificed. Organ weights were measured and blood was collected for further analysis.
# Blood obtained from all rat groups were sent to Antech Diagnostics for hematocrit (HCT), mean corpuscular volume (MCV), mean corpuscular hemoglobin (MCV), and mean corpuscular hemoglobin concentration (MCHC) measurements and analyses, as well as measurements of various blood cells, such as WBC (neutrophils, lymphocytes and monocytes), RBC, and platelets as well as hemoglobin content.
# [6] = Liver function, ALT, AST, bilirubin in cynomolgus monkeys (Example 45); assay type: in vivo; conditions: plasma, escalating dose regimen
# Method in brief: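 Cynomolgus monkeys (2 male, 3 female per group) dosed subcutaneously with antisense oligonucleotide or PBS, escalating 5, 10, then 25 mg/kg two to three times weekly over 12 weeks; one chronic group held at 10 mg/kg from week 4. Blood sampled weekly; necropsy on day 85.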
substance,measurement,setting,value
"ISIS 416858: MOE gapmer, nucleobases 1275 to 1318 of SEQ ID NO: 1 (Table 8) (antisense ACGGCATTGGTGCACAGTTT; MOE gapmer, wing and gap sizes not given here)",platelet aggregation,[1]; day 15 (with ADP),19 Ohms
same,platelet aggregation,[1]; day 36 (with ADP),17 Ohms
same,platelet aggregation,[1]; day 43 (with collagen),16 Ohms
same,platelet aggregation,[1]; day 57 (with ADP),11 Ohms
same,platelet aggregation,[1]; day 64 (with collagen),14 Ohms
same,platelet aggregation,[1]; day 78 (with ADP),8 Ohms
same,platelet aggregation,[1]; day 85 (with ADP),18 Ohms
same,platelet aggregation,[1]; day 85 (with collagen),23 Ohms
same,platelet aggregation,[1]; day −5 (with collagen),22 Ohms
same,"percent inhibition of Factor 11 activity, relative to PBS control",[2]; day 8,6%
same,"percent inhibition of Factor 11 activity, relative to PBS control",[2]; day 15,16%
same,"percent inhibition of Factor 11 activity, relative to PBS control",[2]; day 22,23%
same,"percent inhibition of Factor 11 activity, relative to PBS control",[2]; day 29,28%
same,"percent inhibition of Factor 11 activity, relative to PBS control",[2]; day 36,35%
same,"percent inhibition of Factor 11 activity, relative to PBS control",[2]; day 43,39%
same,"percent inhibition of Factor 11 activity, relative to PBS control",[2]; day 50,49%
same,"percent inhibition of Factor 11 activity, relative to PBS control",[2]; day 57,60%
same,"percent inhibition of Factor 11 activity, relative to PBS control",[2]; day 64,68%
same,"percent inhibition of Factor 11 activity, relative to PBS control",[2]; day 71,71%
same,"percent inhibition of Factor 11 activity, relative to PBS control",[2]; day 78,73%
same,"percent inhibition of Factor 11 activity, relative to PBS control",[2]; day 85,78%
same,"percent inhibition of Factor 11 activity, relative to PBS control",[2]; day −5,0%
same,"percent inhibition of Factor 11 activity, relative to PBS control",[2]; day −14,0%
same,RBC count,[3],9 cells/pL
same,BUN,[4],23 mg/dL
same,Platelets,[5],19 10^3/μL
same,RBC,[5],2
same,WBC,[5],28 nL⁻¹
same,lymphocytes,[5],3%
same,monocytes,[5],10%
same,neutrophils,[5],20%
same,HCT,[5],3%
same,MCH,[5],2
same,MCHC,[5],1%
same,MCV,[5],2
same,ALT,[6]; day 22,28 IU/L
same,AST,[6]; day 22,38 IU/L
same,Bilirubin,[6]; day 22,0.18 mg/dL
same,ALT,[6]; day 43,36 IU/L
same,AST,[6]; day 43,39 IU/L
same,Bilirubin,[6]; day 43,0.14 mg/dL
same,ALT,[6]; day 64,47 IU/L
same,AST,[6]; day 64,50 IU/L
same,Bilirubin,[6]; day 64,0.12 mg/dL
same,ALT,[6]; day 85,50 IU/L
same,AST,[6]; day 85,49 IU/L
same,Bilirubin,[6]; day 85,0.14 mg/dL
same,ALT,[6]; day −14,47 IU/L
same,AST,[6]; day −14,58 IU/L
same,Bilirubin,[6]; day −14,0.27 mg/dL
"ISIS 416864: MOE gapmer, nucleobases 1275 to 1318 of SEQ ID NO: 1 (Table 8) (antisense GGCAGCGGACGGCATTGGTG; MOE gapmer, wing and gap sizes not given here)",platelet aggregation,[1]; day 15 (with ADP),20 Ohms
same,platelet aggregation,[1]; day 36 (with ADP),17.8 Ohms
same,platelet aggregation,[1]; day 43 (with collagen),20 Ohms
same,platelet aggregation,[1]; day 57 (with ADP),18 Ohms
same,platelet aggregation,[1]; day 64 (with collagen),17 Ohms
same,platelet aggregation,[1]; day 78 (with ADP),13 Ohms
same,platelet aggregation,[1]; day 85 (with ADP),22 Ohms
same,platelet aggregation,[1]; day 85 (with collagen),28 Ohms
same,platelet aggregation,[1]; day −5 (with collagen),27 Ohms
same,"percent inhibition of Factor 11 activity, relative to PBS control",[2]; day 8,7%
same,"percent inhibition of Factor 11 activity, relative to PBS control",[2]; day 15,9%
same,"percent inhibition of Factor 11 activity, relative to PBS control",[2]; day 22,7%
same,"percent inhibition of Factor 11 activity, relative to PBS control",[2]; day 29,10%
same,"percent inhibition of Factor 11 activity, relative to PBS control",[2]; day 36,9%
same,"percent inhibition of Factor 11 activity, relative to PBS control",[2]; day 43,9%
same,"percent inhibition of Factor 11 activity, relative to PBS control",[2]; day 50,10%
same,"percent inhibition of Factor 11 activity, relative to PBS control",[2]; day 57,7%
same,"percent inhibition of Factor 11 activity, relative to PBS control",[2]; day 64,5%
same,"percent inhibition of Factor 11 activity, relative to PBS control",[2]; day 71,10%
same,"percent inhibition of Factor 11 activity, relative to PBS control",[2]; day 78,9%
same,"percent inhibition of Factor 11 activity, relative to PBS control",[2]; day 85,8%
same,"percent inhibition of Factor 11 activity, relative to PBS control",[2]; day −5,5%
same,"percent inhibition of Factor 11 activity, relative to PBS control",[2]; day −14,0%
same,MCHC,"[3]; sc, 50 mg/kg",31%
same,BUN,[4],24 mg/dL
same,Platelets,[5],12 10^3/μL
same,RBC,[5],4
same,WBC,[5],15 nL⁻¹
same,lymphocytes,[5],2%
same,monocytes,[5],29%
same,neutrophils,[5],26%
same,HCT,[5],2%
same,MCH,[5],2
same,MCHC,[5],4%
same,MCV,[5],4
same,ALT,[6]; day 22,37 IU/L
same,AST,[6]; day 22,41 IU/L
same,Bilirubin,[6]; day 22,0.22 mg/dL
same,ALT,[6]; day 43,36 IU/L
same,AST,[6]; day 43,40 IU/L
same,Bilirubin,[6]; day 43,0.17 mg/dL
same,ALT,[6]; day 64,43 IU/L
same,AST,[6]; day 64,46 IU/L
same,Bilirubin,[6]; day 64,0.16 mg/dL
same,ALT,[6]; day 85,43 IU/L
same,AST,[6]; day 85,56 IU/L
same,Bilirubin,[6]; day 85,0.17 mg/dL
same,ALT,[6]; day −14,54 IU/L
same,AST,[6]; day −14,76 IU/L
same,Bilirubin,[6]; day −14,0.31 mg/dL

# — patent US20230263822A1, “MODULATION OF FACTOR 11 EXPRESSION” (Ionis Pharmaceuticals, Inc., priority 2008, published 2023)
